“Also recorded” adds a separate entry of the source.
What was measured:
[1] = cited from earlier work
[2] = biological target: T1, rat GLP-1 receptor (Rattus norvegicus, UniProt P32301); assay: cAMP accumulation, CHL cells over-expressing the rat GLP-1 receptor; type: cell-based; conditions: analogue average EC50/average GLP-1 EC50; below 1 enhanced efficacy, above 1 decreased efficacy vs native peptide
T1 construct: host or cells: CHL (Chinese hamster lung)
T1 sequence (P32301 22-463): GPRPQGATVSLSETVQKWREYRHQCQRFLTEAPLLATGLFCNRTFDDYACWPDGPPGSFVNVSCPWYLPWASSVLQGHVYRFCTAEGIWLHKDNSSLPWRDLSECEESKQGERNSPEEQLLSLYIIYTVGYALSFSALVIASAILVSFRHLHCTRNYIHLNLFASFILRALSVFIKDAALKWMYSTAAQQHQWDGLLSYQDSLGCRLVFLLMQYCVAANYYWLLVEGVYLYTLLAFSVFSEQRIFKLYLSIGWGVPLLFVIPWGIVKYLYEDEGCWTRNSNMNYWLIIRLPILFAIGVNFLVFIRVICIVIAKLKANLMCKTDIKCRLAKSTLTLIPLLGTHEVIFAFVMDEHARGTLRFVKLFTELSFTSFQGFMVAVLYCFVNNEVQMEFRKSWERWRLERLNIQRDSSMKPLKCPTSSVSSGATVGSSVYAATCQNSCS
Description: (§1) For cAMP studies, cells were seeded at a density of 150000 cells/ml in a 48 well plate (Nunc, VWR International Inc., Chicago, USA) and incubated for 24 h. Cells were serum starved for 1 h and then incubated for 30 mins at room temperature with a range of peptide concentrations diluted in serum free DMEM (Sigma–Aldrich, Dorset, UK) in the presence of 1 mM IBMX (3-isobutyl-1-methylxanthine, Sigma–Aldrich). […] EC50’s were calculated using Prism v5 (GraphPad Software Inc., San Diego, CA, USA). Concentrations were applied in duplicate or triplicate per experiment and each experiment repeated a minimum of 3 times.
(§2) All food and bodyweight data are presented as mean ± SEM. […] Differences in 0–7 days cumulative food intake and bodyweight data were analysed using one way ANOVA and post hoc tests with Dunnett’s or Bonferroni corrections for multiple comparisons (Prism v5, GraphPad Software Inc. San Diego, CA, USA). cAMP EC50’s were calculated using a sigmoidal dose response curve and non-linear regression (Prism v5). […] In all cases P < 0.05 was considered statistically significant.

[3] = biological target: T2, rat glucagon receptor (Rattus norvegicus, UniProt P30082); assay: cAMP accumulation, CHO-K1 cells over-expressing the rat glucagon receptor; type: cell-based; conditions: rat glucagon receptor vs rat GLP-1 receptor
T2 construct: host or cells: CHO-K1
Description: as §1, §2

[4] = test system: human glucagon receptor; conditions: compared to native peptides; ref [22],[23],[32]; cited from earlier work
[5] = parameters: method as in earlier work; conditions: native oxyntomodulin and longer lasting dual analogues; rodents ref [6],[9],[10],[23],[26],[31]; humans ref [36],[37]; cited from earlier work
From the text: Additionally, methods of peptide administration differ: some studies infused peptides while others administer ...

[6] = rodents and humans; ref [7],[19],[34],[36],[37]; cited from earlier work
[7] = test system: human GLP-1 receptor; conditions: compared to native peptides; ref [22],[23],[32]; cited from earlier work

T2 sequence (P30082 27-485): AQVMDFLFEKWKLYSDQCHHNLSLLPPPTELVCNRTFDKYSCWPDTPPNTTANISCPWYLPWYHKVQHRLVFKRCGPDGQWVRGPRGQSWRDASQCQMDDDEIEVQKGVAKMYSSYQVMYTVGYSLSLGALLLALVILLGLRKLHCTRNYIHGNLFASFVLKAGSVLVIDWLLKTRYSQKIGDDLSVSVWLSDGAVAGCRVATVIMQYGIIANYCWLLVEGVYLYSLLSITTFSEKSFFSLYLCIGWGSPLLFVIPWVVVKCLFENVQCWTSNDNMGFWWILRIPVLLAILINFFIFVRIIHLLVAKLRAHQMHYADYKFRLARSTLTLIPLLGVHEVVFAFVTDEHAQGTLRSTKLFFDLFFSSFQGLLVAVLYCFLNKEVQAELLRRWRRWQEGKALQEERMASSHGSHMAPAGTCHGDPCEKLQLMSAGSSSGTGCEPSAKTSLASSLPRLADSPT

## Exendin-4
[1]; ref [33],[38]
  weight loss in standard chow fed animals: weight loss

## GLP-1(7-36NH2)
[2]
  EC50 ratio to native peptide, Rat GLP-1r: 1.0 arbitrary units

## oxyntomodulin [OXM]
[3]
  preference between rat glucagon and GLP-1 receptors: greater efficacy at the glucagon receptor than the GLP1 receptor; also recorded: favoured glucagon receptor activity
[4]
  activation of human glucagon receptor: reduced efficacy compared to the native peptides
[1]; peripheral administration, rodents ref [1],[5],[6],[25], humans ref [4],[36],[37]
  weight loss: causes weight loss
[5]
  food intake after repeated peripheral administration: reduction in food intake
[6]
  energy expenditure: increase energy expenditure
[7]
  activation of human GLP-1 receptor: reduced efficacy compared to the native peptides

From paper PMC4645461 (Peptides, 2015)
